The source made the active and inactive calls. No cut-off for these calls is given here.
Columns and labels:
[1] = Intrinsic clearance in human liver microsomes; assay type: ADME, Microsome; settings: read-out: CLH
Brain = assay: Ratio of drug level in p-gp knock-out mouse brain to wild type mouse brain; assay type: ADME, tissue-based; settings: in vivo
[2] = Inhibition of gamma secretase expressed in CHO cells expressing APP assessed as amyloid beta42 production; assay type: cell-based
MDR1 (P-gp), human = assay: Efflux ratio of permeability in MDCK cells over expressing human MDR1; assay type: ADME, cell-based, Canis lupus familiaris; settings: dog
[3] = Volume of distribution at steady state in rat; assay type: ADME, organism-based; settings: in vivo, read-out: Vdss
Cytochrome P450 3A4 = Cytochrome P450 3A4 (Homo sapiens, UniProt P08684); assay: Inhibition of CYP3A4; assay type: ADME
[4] = Fraction unbound in Hartley guinea pig plasma at 100 mg/kg, po after 4 hrs post dose; assay type: ADME, organism-based, Cavia porcellus; set-up: dose 100 mg/kg, route oral
[5] = Fraction unbound in Hartley guinea pig brain at 100 mg/kg, po after 4 hrs post dose […]; assay type: ADME, organism-based, Cavia porcellus; set-up: dose 100 mg/kg, route oral
Cavia porcellus [6] = assay: Antialzheimer activity in Hartley guinea pig assessed as reduction of amyloid beta40 level in brain at 100 mg/kg, po after 4 hrs; assay type: functional; set-up: scale not given: the % may be the effect or the level left
Cavia porcellus [7] = assay: Antialzheimer activity in Hartley guinea pig assessed as reduction of amyloid beta42 level in brain at 100 mg/kg, po after 4 hrs; assay type: functional; set-up: scale not given: the % may be the effect or the level left
[8] = Ratio of fraction unbound in Hartley guinea pig brain to IC50 of gamma secretase expressed in CHO cells expressing APP assessed as amyloid beta42 production; assay type: ADME, cell-based
Gamma-secretase = assay: Inhibition of gamma-secretase expressed in human HEK293 NdeltaE cells assessed as cleavage of Notch; assay type: cell-based
[9] = Oral bioavailability in rat; assay type: ADME, organism-based; settings: in vivo
[10] = Half life in rat; assay type: ADME, organism-based; settings: in vivo
[11] = Clearance in rat; assay type: ADME, organism-based; settings: in vivo
Cytochrome P450 2D6 = Cytochrome P450 2D6 (Homo sapiens, UniProt P10635); assay: Inhibition of CYP2D6; assay type: ADME
[12] = Total plasma concentration in Hartley guinea pig at 100 mg/kg, po after 4 hrs post dose; assay type: ADME, organism-based, Cavia porcellus; set-up: dose 100 mg/kg, route oral
[13] = Drug uptake in Hartley guinea pig brain at 100 mg/kg, po after 4 hrs post dose; assay type: ADME, organism-based, Cavia porcellus; set-up: dose 100 mg/kg, route oral; settings: read-out: Drug uptake
Cavia porcellus [14] = assay: Antialzheimer activity in Hartley guinea pig assessed as effect on total amyloid beta level in plasma at 100 mg/kg, po after 4 hrs; assay type: functional, organism-based; set-up: dose 100 mg/kg
Cavia porcellus [15] = assay: Antialzheimer activity in Hartley guinea pig assessed as effect on total amyloid beta level in brain at 100 mg/kg, po after 4 hrs; assay type: functional, organism-based; set-up: dose 100 mg/kg
Cavia porcellus [16] = assay: Antialzheimer activity in Hartley guinea pig assessed as increase of amyloid beta38 level in plasma at 100 mg/kg, po after 4 hrs; assay type: functional

Sequence of Cytochrome P450 2D6 (P10635 whole entry): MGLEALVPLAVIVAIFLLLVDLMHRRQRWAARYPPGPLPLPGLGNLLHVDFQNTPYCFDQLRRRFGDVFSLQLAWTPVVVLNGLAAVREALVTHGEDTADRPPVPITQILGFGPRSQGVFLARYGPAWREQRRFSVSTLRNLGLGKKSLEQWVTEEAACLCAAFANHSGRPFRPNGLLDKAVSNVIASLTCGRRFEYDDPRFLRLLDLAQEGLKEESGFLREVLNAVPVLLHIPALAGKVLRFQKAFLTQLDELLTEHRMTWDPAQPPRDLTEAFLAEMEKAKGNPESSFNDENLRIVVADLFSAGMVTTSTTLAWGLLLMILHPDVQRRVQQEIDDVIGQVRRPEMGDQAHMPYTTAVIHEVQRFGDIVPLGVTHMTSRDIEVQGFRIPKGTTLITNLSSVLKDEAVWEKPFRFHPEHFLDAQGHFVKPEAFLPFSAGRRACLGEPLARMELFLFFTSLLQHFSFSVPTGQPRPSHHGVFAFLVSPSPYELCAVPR
Sequence of Cytochrome P450 3A4 (P08684 whole entry): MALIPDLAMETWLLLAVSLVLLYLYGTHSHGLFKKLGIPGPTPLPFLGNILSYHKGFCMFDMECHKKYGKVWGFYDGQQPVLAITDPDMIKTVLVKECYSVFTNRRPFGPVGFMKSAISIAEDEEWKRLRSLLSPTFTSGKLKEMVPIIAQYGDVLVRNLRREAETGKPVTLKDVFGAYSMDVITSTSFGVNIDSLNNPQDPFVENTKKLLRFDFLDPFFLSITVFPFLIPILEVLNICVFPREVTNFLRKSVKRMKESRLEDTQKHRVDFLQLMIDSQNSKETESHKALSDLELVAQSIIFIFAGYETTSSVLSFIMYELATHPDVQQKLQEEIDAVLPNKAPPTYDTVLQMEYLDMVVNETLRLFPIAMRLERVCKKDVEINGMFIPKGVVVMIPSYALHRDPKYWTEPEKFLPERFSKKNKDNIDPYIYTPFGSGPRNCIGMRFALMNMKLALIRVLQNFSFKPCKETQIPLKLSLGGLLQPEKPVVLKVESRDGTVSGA

Row | microsomal CLint [1] [µL/min/mg] | IC50 [2] [nM] | efflux ratio (MDR1 (P-gp), human) | SMILES | also measured
1 | 29.3 | 332 | 3.2 | COc1cc(C(=O)NCc2cnc(-c3ccccc3)s2)ccc1-n1cnc(C)c1 | Ratio (Brain): 5
2 | 112 | 309 | 1.6 | COc1cc(C(=O)NCC2(c3ccc(F)cc3)CCC2)ccc1-n1cnc(C)c1 | 
3 | 19.4 | 1690 |  | COc1cc(C(=O)N[C@H]2COc3c(Cl)cccc32)ccc1-n1cnc(C)c1 | 
4 | 122 | 114 |  | CCOc1cc(C)c(CN(C(=O)c2ccc(-n3cnc(C)c3)c(OC)c2)C2CC2)cc1C(C)C | 
5 | 32.7 | 605 | 0.5 | COc1cc(C(=O)N[C@H]2CCc3ccc(Cl)cc32)ccc1-n1cnc(C)c1 | 
6 | 12.6 | 4400 | 1.1 | COc1cc(C(=O)N[C@@H](C)c2ccc(F)cc2)ccc1-n1cnc(C)c1 | 
7 | 30 | 330 | 3.8 | COc1cc(C(=O)NCc2cc(-c3cccc(Cl)c3)no2)ccc1-n1cnc(C)c1 | 
8 | 48.7 | 208 | 1.1 | COc1nc(C(=O)N2CC[C@H](Oc3ccccc3C(F)(F)F)C2)ccc1-n1cnc(C)c1 | 
9 |  | 5330 |  | COc1cc(C(=O)N2CC[C@H](Oc3ccccc3C(F)(F)F)C2)ncc1-n1cnc(C)c1 | 
10 | 30 | 188 | 1.4 | COc1nc(C(=O)N[C@H]2COc3ccc(Cl)c(F)c32)ccc1-n1cnc(C)c1 | Vd [3]: 1.78 L; IC50 (Cytochrome P450 3A4): > 30000 nM; fraction unbound at 4 h [4]: 0.078; fraction unbound at 4 h [5]: 0.0097; Activity (Cavia porcellus [6]): 16%; Activity (Cavia porcellus [7]): 36%; Ratio [8]: 0.31; IC50 (Gamma-secretase): > 50000 nM; bioavailability [9]: 51%; half-life [10]: 0.64 h; clearance [11]: 31.4 mL/min/kg; IC50 (Cytochrome P450 2D6): > 30000 nM; concentration at 4 h [12]: 1290 ng/mL; concentration at 4 h [13]: 3710 ng/g
11 | 22.3 | 521 | 1.6 | COc1cc(C(=O)N[C@H]2COc3ccc(Cl)cc32)ccc1-n1cnc(C)c1 | Vd [3]: 1.87 L; fraction unbound at 4 h [4]: 0.088; Activity (Cavia porcellus [14]): inactive; fraction unbound at 4 h [5]: 0.018; Activity (Cavia porcellus [6]): 32%; Activity (Cavia porcellus [7]): 57%; Ratio [8]: 2.1; IC50 (Gamma-secretase): > 50000 nM; bioavailability [9]: 100%; half-life [10]: 2.43 h; clearance [11]: 9.63 mL/min/kg; Activity (Cavia porcellus [15]): inactive; concentration at 4 h [12]: 5120 ng/mL; concentration at 4 h [13]: 22100 ng/g; Activity (Cavia porcellus [16]): 72%
12 | 97.3 | 1660 | 1.7 | COc1cc(C(=O)NC2COc3cccc(Cl)c32)ccc1-n1cnc(C)c1 (racemic) | 
13 | 49.3 | 234 | 1.8 | COc1nc(C(=O)NC2COc3ccc(Cl)c(C)c32)ccc1-n1cnc(C)c1 (racemic) | 
14 | 16.9 | 2990 |  | COc1ccc2c(c1)[C@@H](NC(=O)c1ccc(-n3cnc(C)c3)c(OC)c1)CO2 | 
15 | 35.6 | 1960 |  | COc1cc(C(=O)NC2COc3cc(Cl)ccc32)ccc1-n1cnc(C)c1 (racemic) | 
16 | 50.8 | 320 | 2.5 | COc1cc(C(=O)N2CC[C@H](Oc3ccccc3C(F)(F)F)C2)ccc1-n1cnc(C)c1 | 
17 |  | 535 |  | COc1nc(C(=O)N2CC[C@H](Oc3ccccc3C(F)(F)F)C2)cnc1-n1cnc(C)c1 | 
18 |  | 1460 | 8.7 | COc1cc(C(=O)NCc2nnc(-c3cccc(Cl)c3)o2)ccc1-n1cnc(C)c1 | 
19 |  | 3440 | 1.6 | COc1cc(C(=O)N2CC[C@H](Oc3ccccc3C(F)(F)F)C2)cnc1-n1cnc(C)c1 | 
20 | 29.2 | 659 | 1.8 | COc1cc(C(=O)NCc2cccc(C(F)(F)F)c2)ccc1-n1cnc(C)c1 | 
21 | 28 | 343 | 1.3 | COc1nc(C(=O)N[C@H]2COc3ccc(Cl)cc32)ccc1-n1cnc(C)c1 | 
22 | 21.8 | 1560 |  | COc1cc(C(=O)NC2COc3ccc(F)cc32)ccc1-n1cnc(C)c1 (racemic) | 
23 | 37.1 | 143 | 2.2 | COc1cc(/C=C2\CCCN([C@@H](C)c3ccc(F)cc3)C2=O)ccc1-n1cnc(C)c1 | 
24 | 124 | 256 | 24 | COc1cc(C(=O)N2CC[C@](O)(COc3ccccc3C(F)(F)F)C2)ccc1-n1cnc(C)c1 | 
